The results in this text go back to US5089498A, “Substituted 4-aminoquinoline derivatives as gastric acid secretion inhibitors” (SmithKline Beckman Intercredit B.V., priority 1988, dated 1992).

This assay relates to pentagastrin stimulated gastric acid secretion. Kind of assay: Rat Lumen Perfused Stomach (pentagastrin stimulated gastric acid secretion). The assay is classed as in vivo. Particulars: i.v., 10 μmole/kg. The text has this:
B. Rat Lumen Perfused Stomach (pentagastrin stimulated gastric acid secretion).
Using a modification of the procedure described by Ghosh & Schild (Br. J. Pharmacology, 13, 54, 1958), the compounds of the following examples were found on i.v. administration at a concentration of 10 μmole/kg to cause an inhibition of pentagastrin stimulated gastric acid secretion a follows: […]

On to `CCCC(=O)c1cnc2c(C(=O)OC)cccc2c1Nc1ccccc1C` [Example 1, methyl 3-butyryl-4-(2-methylphenylamino)quinoline-8-carboxylate], for which the “% inhibition of pentagastrin stimulated gastric acid secretion” value worked out at 42%.

As to `CCCC(=O)c1cnc2c(C(N)=O)cccc2c1Nc1ccccc1C` [Example 2, 3-butyryl-4-(2-methylphenylamino)quinoline-8-carboxamide], the “% inhibition of pentagastrin stimulated gastric acid secretion” value was 39%.
